Assay results as given in patent publication US11253509B2, “Methods of treatment for cystic fibrosis” (Vertex Pharmaceuticals Incorporated, priority 2017, dated 2022).
“Also recorded” adds a separate entry of the source.

Columns and labels:
CFTR = molecular target: T1, CFTR (Homo sapiens, UniProt P13569, DEL508-508); test: CFTR chloride transport in human bronchial epithelial (HBE) cells in vitro (Example 7); type: cell-based
T1 construct: In human bronchial epithelial (HBE) cells studied in vitro; endogenous in cells; host or cells: human bronchial epithelial (HBE) cells

F508del-CFTR [1] = molecular target: T2, F508del-CFTR (Homo sapiens, UniProt P13569, DEL508-508); test: Ussing chamber assay, chloride transport in F508del/F508del-HBE cells; type: cell-based; parameters: CF-HBE cells were isolated from patients homozygous for F508del (F508del/F508del-HBE); endogenous in cells; host or cells: primary F508del/F508del-HBE cells from bronchial tissue of CF patients
Description: Ussing chamber experiments were performed on polarized airway epithelial cells expressing F508del to further characterize the F508del modulators identified in the optical assay above. Non-CF and CF airway epithelia were isolated from bronchial tissue, cultured using methods well known in the art, and plated onto Costar® Snapwell™ filters that were precoated with NIH3T3-conditioned media. After four days the apical media was removed and the cells were grown at an air liquid interface for >14 days prior to use. […] CF-HBE cells were isolated from patients homozygous for F508del (F508del/F508del-HBE) or heterozygous for F508del and a mutation associated with minimal CF transmembrane conductance regulator (CFTR) function (MF) that is not expected to respond to Compound II, Compound III, Compound III-d, and the combination of Compound II and III, or Compound II and III-d (F508del/MF-HBE).
HBE cells grown on Costar® Snapwell™ cell culture inserts were mounted in an Ussing chamber (Physiologic Instruments, Inc., San Diego, Calif.), and the transepithelial resistance and short-circuit current in the presence of a basolateral to apical Cl^− gradient (ISC) were measured using a voltage-clamp system (Department of Bioengineering, University of Iowa, Iowa). Briefly, HBE cells were examined under voltage-clamp recording conditions (Vhold=0 mV) at 37° C. The basolateral solution contained (in mM) 145 NaCl, 0.83 K2HPO4, 3.3 KH2PO4, 1.2 MgCl2, 1.2 CaCl2, 10 Glucose, 10 HEPES (pH adjusted to 7.35 with NaOH) and the apical solution contained (in mM) 145 NaGluconate, 1.2 MgCl2, 1.2 CaCl2, 10 glucose, 10 HEPES (pH adjusted to 7.35 with NaOH).
Ussing Chamber Assay Procedure
A basolateral to apical membrane Cl^− concentration gradient was set up as follows. Normal Ringer's solution was used on the basolateral membrane, whereas apical NaCl was replaced by equimolar sodium gluconate (titrated to pH 7.4 with NaOH) to give a large Cl^− concentration gradient across the epithelium. […] Chloride current was measured to assess the increase in functional CFTR in the cell membrane. […]

F508del-CFTR [2] = molecular target: T2, F508del-CFTR; test: F508del-CFTR processing and trafficking (170 to 180 kDa band) in F508del/F508del-HBE cells; type: cell-based; parameters: CF-HBE cells were isolated from patients homozygous for F508del (F508del/F508del-HBE); endogenous in cells; host or cells: primary F508del/F508del-HBE cells from bronchial tissue of CF patients
Text: The CFTR protein delivered to the cell surface by Compound I alone or in combination with Compound II (Compound I/Compound II) was potentiated by Compound III.

[3] = Preclinical reproductive toxicology studies; type: in vivo
[4] = Compound I monotherapy safety in healthy subjects; type: in vivo, human; conditions: multiple doses up to 400 mg qd for 10 days
F508del-CFTR [5] = molecular target: T2, F508del-CFTR; test: Membrane potential optical assay (F508del-CFTR correction); type: cell-based; parameters: expressed in transfected cells; conditions: NIH3T3 mouse fibroblasts stably expressing F508del, 18-24 hours
Text: Membrane Potential Optical Methods for Assaying Properties of F508del-CFTR Modulators
An optical assay was employed to measure changes in membrane potential to determine the CFTR modulator properties of compounds. The assay utilized fluorescent voltage sensing dyes to measure changes in membrane potential using a fluorescent plate reader (e.g., FLIPR III, Molecular Devices, Inc.) as a readout for increase in functional F508del in NIH 3T3 cells. The driving force for the response was the creation of a chloride ion gradient in conjunction with channel activation and concurrent with compound treatment by a single liquid addition step after the cells had previously been loaded with a voltage sensing dye.
NIH3T3 mouse fibroblasts stably expressing F508del were used for optical measurements of membrane potential. The cells were maintained at 37° C. in 5% CO2 and 90% humidity in Dulbecco's modified Eagle's medium supplemented with 2 mM glutamine, 10% fetal bovine serum, 1×NEAA, β-ME, 1× pen/strep, and 25 mM HEPES in 175 cm^2 culture flasks. […] The cells were then activated and treated with Compound I. After 18-24 hours, fluorescence from the voltage sensing dye in the cells was measured to assess changes in the membrane potential as a read out for increase in functional F508del CFTR in the NIH3T3 cells.

T2 sequence (P13569 with tags, fused parts or gaps DEL508-508): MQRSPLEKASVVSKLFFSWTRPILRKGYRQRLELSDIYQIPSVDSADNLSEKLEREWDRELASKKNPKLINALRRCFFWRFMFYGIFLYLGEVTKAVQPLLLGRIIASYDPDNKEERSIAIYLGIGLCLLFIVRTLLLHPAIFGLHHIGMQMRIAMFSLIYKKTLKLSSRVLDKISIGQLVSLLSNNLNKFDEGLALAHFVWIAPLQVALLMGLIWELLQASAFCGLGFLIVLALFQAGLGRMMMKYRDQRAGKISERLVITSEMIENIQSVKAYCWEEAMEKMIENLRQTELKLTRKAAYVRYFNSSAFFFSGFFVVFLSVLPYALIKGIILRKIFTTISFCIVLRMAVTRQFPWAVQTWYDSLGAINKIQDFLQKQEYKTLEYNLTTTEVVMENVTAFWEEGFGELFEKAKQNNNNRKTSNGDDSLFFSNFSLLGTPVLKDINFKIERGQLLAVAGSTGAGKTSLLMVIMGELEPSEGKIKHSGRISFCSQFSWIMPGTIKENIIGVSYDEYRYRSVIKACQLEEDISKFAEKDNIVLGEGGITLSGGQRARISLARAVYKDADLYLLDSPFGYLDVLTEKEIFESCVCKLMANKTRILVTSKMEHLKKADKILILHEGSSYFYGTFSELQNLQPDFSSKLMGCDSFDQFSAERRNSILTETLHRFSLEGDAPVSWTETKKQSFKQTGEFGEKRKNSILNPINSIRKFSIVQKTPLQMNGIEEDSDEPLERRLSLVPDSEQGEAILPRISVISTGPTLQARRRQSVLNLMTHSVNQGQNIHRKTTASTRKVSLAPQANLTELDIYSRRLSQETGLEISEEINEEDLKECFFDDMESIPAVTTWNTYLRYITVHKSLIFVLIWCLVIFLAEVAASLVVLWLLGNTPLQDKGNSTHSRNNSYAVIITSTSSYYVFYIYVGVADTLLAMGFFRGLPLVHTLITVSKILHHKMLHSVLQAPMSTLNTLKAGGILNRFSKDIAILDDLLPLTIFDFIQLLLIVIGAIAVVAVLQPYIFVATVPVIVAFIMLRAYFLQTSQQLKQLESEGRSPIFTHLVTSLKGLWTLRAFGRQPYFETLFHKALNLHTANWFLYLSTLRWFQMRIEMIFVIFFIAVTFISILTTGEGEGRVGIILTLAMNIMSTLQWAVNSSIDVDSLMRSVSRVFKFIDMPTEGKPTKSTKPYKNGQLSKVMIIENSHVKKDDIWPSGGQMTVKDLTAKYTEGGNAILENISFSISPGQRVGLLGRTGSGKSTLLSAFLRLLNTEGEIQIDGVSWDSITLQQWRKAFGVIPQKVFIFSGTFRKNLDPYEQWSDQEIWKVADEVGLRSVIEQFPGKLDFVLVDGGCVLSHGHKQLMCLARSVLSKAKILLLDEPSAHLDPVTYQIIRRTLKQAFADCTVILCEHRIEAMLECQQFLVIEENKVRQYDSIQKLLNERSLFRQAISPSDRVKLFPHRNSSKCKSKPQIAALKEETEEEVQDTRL
T1 sequence (P13569 with tags, fused parts or gaps DEL508-508): as above

Row | potentiation of CFTR protein delivered to the cell surface by Compound I alone or with Compound II (CFTR) | potentiation of F508del-CFTR delivered to the cell surface by Compound I alone or with Compound II (F508del-CFTR [1]) | steady-state levels, fold of untreated levels (F508del-CFTR [2]; F508del/F508del-HBE cells, 16 to 24 hours, 1 μM Compound I alone) | chloride transport (F508del-CFTR [1]) | effect on chloride transport in relation to the effect of Compound II (F508del-CFTR [1]) | EC50 (F508del-CFTR [5]) | Emax (F508del-CFTR [5]; read-out: % Efficacy relative to Compound II) | SMILES | processing and trafficking of F508del-CFTR (F508del-CFTR [2]; in vitro) | reproductive toxicology findings [3] | safety and tolerability [4]
1 | potentiated | potentiated |  |  |  |  |  | CC(C)(C)c1cc(C(C)(C)C)c(NC(=O)c2c[nH]c3ccccc3c2=O)cc1O [Compound III, N-(5-hydroxy-2,4-di-tert-butyl-phenyl)-4-oxo-1H-quinoline-3-carboxamide, reference compound] |  |  | 
2 |  |  | 6.5 fold | enhanced chloride transport | additive to the effect of Compound II | < 3 µM | ≥ 100% | C[C@@H]1CN(c2nc(-n3ccc(OCCC4(C(F)(F)F)CC4)n3)ccc2C(=O)NS(=O)(=O)c2ccccc2)C(C)(C)C1 [Compound I, N-(benzenesulfonyl)-6-[3-[2-[1-(trifluoromethyl)cyclopropyl]ethoxy]pyrazol-1-yl]-2-[(4(S))-2,2,4-trimethylpyrrolidin-1-yl]pyridine-3-carboxamide] | improved the processing and trafficking of F508del-CFTR; also recorded: facilitates the processing and trafficking of F508del-CFTR | no adverse findings of note | safe and well tolerated
